Measurements: patent US20240325321A1, “COMPOSITIONS AND METHODS FOR INHIBITING PLpro PROTEASE ACTIVITY AND FOR PREVENTING AND TREATING SARS-CoV-2 INFECTION” (Arizona Board of Regents on Behalf of the University of …, priority 2022, published 2024)
Read-outs that look alike come from different tables or passages of the source.

Legend:
SARS-CoV-2 [1] = assay: SARS-CoV-2 antiviral assay in Caco2-hACE2 cells; assay type: cell-based; conditions: Severe acute respiratory syndrome coronavirus 2
SARS-CoV-2 [2] = assay: SARS-CoV-2 antiviral assay in Huh7-ACE2 cells; assay type: cell-based; conditions: Severe acute respiratory syndrome coronavirus 2
SARS-CoV-2 [3] = assay: SARS-CoV-2 antiviral assay in Vero E6 cells; assay type: cell-based; conditions: Severe acute respiratory syndrome coronavirus 2, Vero C1008
SARS-CoV-2 PL^pro = SARS-CoV-2 PL^pro (Severe acute respiratory syndrome coronavirus 2, UniProt P0DTD1); assay: biochemical; assay type: biochemical
[4] = Cytotoxicity in Vero E6 cells; conditions: African green monkey
M^pro = biological target: T1, M^pro (Severe acute respiratory syndrome coronavirus 2, UniProt P0DTD1); assay: biochemical
T1 construct: the main protease (M^pro)

[5] = Cytotoxicity in Calu-3 cells; conditions: human
in vitro = conditions: African green monkey
[6] = FRET assay, read-out: SARS-CoV-2 PL^pro IC50

SMILES: Cc1ccc(N)cc1C(=O)N[C@H](C)c1cccc2ccccc12 [GRL0617, reference compound]
- EC50 (SARS-CoV-2 [1]): 25.1 µM
- EC50 (SARS-CoV-2 [2]): 20.2 µM
- EC50 (SARS-CoV-2 [3]): 74.4 µM

SMILES: C[C@H](c1ccc(Cl)cc1)N(C)Cc1cc(O)ccc1Cl [Jun9-13-4]
- IC50 (SARS-CoV-2 PL^pro): > 20 µM

SMILES: CCN(Cc1cc(O)ccc1Cl)c1cccc(C)c1C [Jun9-13-5]
- IC50 (SARS-CoV-2 PL^pro): > 20 µM

SMILES: CC(C1CCCCC1)N(C)Cc1cc(O)ccc1Cl (stereo not shown) [Jun9-13-6]
- IC50 (SARS-CoV-2 PL^pro): > 20 µM

SMILES: Cc1ccc(C(C)N(C)Cc2cc(O)ccc2Cl)cc1 (stereo not shown) [Jun9-13-8]
- IC50 (SARS-CoV-2 PL^pro; [6]): 71.8 µM

SMILES: COc1ccc(Cl)c(CN(C)[C@H](C)c2ccccc2C)c1 [Jun9-25-4]
- IC50 (SARS-CoV-2 PL^pro; [6]): 49.3 µM

SMILES: Cc1ccccc1[C@@H](C)N(C)Cc1cc(O)ccc1Cl [Jun9-25-5]
- CC50 [4]: 38.8 µM
- EC50 (SARS-CoV-2 [2]): 3.1 µM

SMILES: Cc1ccccc1CN(C)Cc1cc(O)ccc1Cl [Jun9-26-2]
- IC50 (SARS-CoV-2 PL^pro): > 20 µM

SMILES: COc1ccc(Cl)c(CN(C)[C@H](C)c2cccc3ccccc23)c1 [Jun9-26-5]
- IC50 (SARS-CoV-2 PL^pro): > 20 µM

SMILES: C[C@H](c1cccc2ccccc12)N(C)Cc1cc(O)ccc1Cl [Jun9-28-6]
- EC50 (SARS-CoV-2 [2]): 5.17 µM
- IC50 (SARS-CoV-2 PL^pro; [6]): 2.66 µM
- IC50 (M^pro): > 20 µM

SMILES: CC1CCCCC1N(C)Cc1cc(O)ccc1Cl (stereo not shown) [Jun9-29-1]
- IC50 (SARS-CoV-2 PL^pro): > 20 µM

SMILES: CC(C)c1ccccc1N(C)Cc1cc(O)ccc1Cl [Jun9-29-3]
- IC50 (SARS-CoV-2 PL^pro): > 20 µM

SMILES: CN(Cc1cc(O)ccc1Cl)Cc1c(Cl)cccc1Cl [Jun9-29-4]
- IC50 (SARS-CoV-2 PL^pro): > 20 µM

SMILES: CC(C1CC(F)CCC1F)N(C)Cc1cc(O)ccc1Cl (stereo not shown) [Jun9-29-5]
- IC50 (SARS-CoV-2 PL^pro; [6]): > 20 µM

SMILES: CC(c1cccc(O)c1)N(C)Cc1cc(O)ccc1Cl (stereo not shown) [Jun9-29-6]
- IC50 (SARS-CoV-2 PL^pro; [6]): 26.9 µM

SMILES: CC(c1ccccc1F)N(C)Cc1cc(O)ccc1Cl (stereo not shown) [Jun9-29-7]
- IC50 (SARS-CoV-2 PL^pro; [6]): 42.9 µM

SMILES: C[C@H](c1cccc2ccccc12)N(C)Cc1ccc(O)cc1 [Jun9-44-3]
- EC50 (SARS-CoV-2 [1]): 8.32 µM
- CC50 [5]: 27.7 µM
- SARS-CoV-2 PL^pro inhibition, in words (SARS-CoV-2 PL^pro): highly potent
- EC50 (SARS-CoV-2 [3]): 11.2 µM

SMILES: Oc1ccc(Cl)c(CN2CCc3ccccc3C2)c1 [Jun9-44-5]
- IC50 (SARS-CoV-2 PL^pro): > 20 µM

SMILES: C[C@@H](NC(=O)c1cc(O)ccc1Cl)c1cccc2ccccc12 [Jun9-47-2]
- IC50 (SARS-CoV-2 PL^pro; [6]): 6.72 µM
- IC50 (M^pro): > 20 µM

SMILES: Cc1ccc(O)cc1C(=O)N[C@H](C)c1cccc2ccccc12 [Jun9-47-3]
- IC50 (SARS-CoV-2 PL^pro; [6]): 2.44 µM
- IC50 (M^pro): > 20 µM

SMILES: C[C@H](c1cccc2ccccc12)N(C)Cc1cc(N)ccc1Cl [Jun9-53-1]
- IC50 (SARS-CoV-2 PL^pro; [6]): 2.71 µM
- IC50 (M^pro): > 20 µM

SMILES: Cc1ccc(N)cc1CN(C)[C@H](C)c1cccc2ccccc12 [Jun9-53-2]
- EC50 (SARS-CoV-2 [1]): 8.89 µM
- CC50 [4]: 25.7 µM
- SARS-CoV-2 PL^pro inhibition, in words (SARS-CoV-2 PL^pro): highly potent
- EC50 (SARS-CoV-2 [3]): 25.2 µM
- IC50 (M^pro): > 20 µM

SMILES: C[C@H](c1cccc2ccccc12)N(C)Cc1ccnc(O)c1 [Jun9-84-6]
- IC50 (SARS-CoV-2 PL^pro): > 20 µM

SMILES: C[C@H](c1cccc2ccccc12)N(C)Cc1cnc(N)cc1N [Jun9-84-7]
- IC50 (SARS-CoV-2 PL^pro; [6]): 5.62 µM

SMILES: C[C@H](c1cccc2ccccc12)N(C)Cc1ccc(OCC(N)=O)nc1 [Jun9-85-4]
- IC50 (SARS-CoV-2 PL^pro; [6]): 2.84 µM

SMILES: C[C@H](c1cccc2ccccc12)N(C)Cc1ccc2c(c1)COC2=O [Jun9-85-7]
- IC50 (SARS-CoV-2 PL^pro; [6]): 6.41 µM

SMILES: C[C@H](c1cccc2ccccc12)N(C)Cc1ccc2cccc(O)c2c1 [Jun9-85-8]
- IC50 (SARS-CoV-2 PL^pro; [6]): > 20 µM

SMILES: C[C@H](c1cccc2ccccc12)N(C)Cc1ccc2c(c1)NC(=O)CO2 [Jun9-86-3]
- IC50 (SARS-CoV-2 PL^pro; [6]): 7.01 µM

SMILES: Cc1cc(O)cc(C)c1CN(C)[C@H](C)c1cccc2ccccc12 [Jun9-86-6]
- IC50 (SARS-CoV-2 PL^pro; [6]): 0.37 µM

SMILES: C[C@H](c1cccc2ccccc12)N(C)Cc1n[nH]c2cccc(O)c12 [Jun9-86-7]
- IC50 (SARS-CoV-2 PL^pro): > 20 µM

SMILES: Cc1cc(O)ccc1CN(C)[C@H](C)c1cccc2ccccc12 [Jun9-87-2]
- CC50 (in vitro): 61 µM
- SARS-CoV-2 PL^pro inhibition, in words (SARS-CoV-2 PL^pro): highly potent

SMILES: C[C@H](c1cccc2ccccc12)N(C)Cc1ccc(O)cc1Cl [Jun9-87-3]
- CC50 (in vitro): 26 µM
- SARS-CoV-2 PL^pro inhibition, in words (SARS-CoV-2 PL^pro): highly potent

SMILES: Cc1ccc(S(N)(=O)=O)cc1C(=O)N(C)C(C)c1ccc(Cl)c2ccccc12 (stereo not shown) [Jun 10-69-2]
- SARS-CoV-2 PL^pro inhibition, in words (SARS-CoV-2 PL^pro): highly potent

SMILES: C[C@H](c1cccc2ccccc12)N(C)C(=O)c1nccnc1N [ZX-129]
- IC50 (SARS-CoV-2 PL^pro; [6]): > 20 µM
- IC50 (M^pro): > 20 µM

SMILES: C[C@H](c1cccc2ccccc12)N(C)Cc1cccnc1 [ZX-136-2]
- IC50 (SARS-CoV-2 PL^pro; [6]): 9.29 µM

SMILES: C[C@H](c1cccc2ccccc12)N(C)Cc1cnn(C)c1 [ZX-136-3]
- IC50 (SARS-CoV-2 PL^pro; [6]): 10.1 µM

SMILES: C[C@H](c1cccc2ccccc12)N(C)Cc1ccc(-n2cccc2)cc1 [ZX-136-4]
- IC50 (SARS-CoV-2 PL^pro): > 20 µM

SMILES: C[C@H](c1cccc2ccccc12)N(C)Cc1cncn1C [ZX-136-5]
- IC50 (SARS-CoV-2 PL^pro; [6]): 8.32 µM

SMILES: C[C@H](c1cccc2ccccc12)N(C)Cc1cnccn1 [ZX-136-9]
- IC50 (SARS-CoV-2 PL^pro): > 20 µM

SMILES: C[C@H](c1cccc2ccccc12)N(C)Cc1cnc2c(O)cccn12 [ZX-136-10]
- IC50 (SARS-CoV-2 PL^pro; [6]): 14.3 µM
